Article PMC12022909, “A Multicomponent Reaction-Based Platform Opens New Avenues in Aryl Hydrocarbon Receptor Modulation” (ACS Central Science, 2025)

How the values were obtained:
HaCaT cells = tested on: HaCaT cells; design: method as in PMID 25431849, PMID 34418602; settings: cited from earlier work
[1] = biological target: T1, aryl hydrocarbon receptor (AhR) (Homo sapiens, UniProt P35869); assay: AhR/XRE-dependent luciferase reporter gene assay in XRE-HepG2 cells; assay type: cell-based; settings: XRE-HepG2 cells, 8 h; unit as in the supplements; read-out: AhR/XRE-dependent luciferase activity EC50
T1 construct: AhR-dependent reporter gene activity was determined in human HepG2 cells stably transfected with an XRE; endogenous in cells; host or cells: XRE-HepG2 (human HepG2 hepatoma cells stably carrying an XRE-luciferase plasmid)
T1 sequence (P35869 11-848): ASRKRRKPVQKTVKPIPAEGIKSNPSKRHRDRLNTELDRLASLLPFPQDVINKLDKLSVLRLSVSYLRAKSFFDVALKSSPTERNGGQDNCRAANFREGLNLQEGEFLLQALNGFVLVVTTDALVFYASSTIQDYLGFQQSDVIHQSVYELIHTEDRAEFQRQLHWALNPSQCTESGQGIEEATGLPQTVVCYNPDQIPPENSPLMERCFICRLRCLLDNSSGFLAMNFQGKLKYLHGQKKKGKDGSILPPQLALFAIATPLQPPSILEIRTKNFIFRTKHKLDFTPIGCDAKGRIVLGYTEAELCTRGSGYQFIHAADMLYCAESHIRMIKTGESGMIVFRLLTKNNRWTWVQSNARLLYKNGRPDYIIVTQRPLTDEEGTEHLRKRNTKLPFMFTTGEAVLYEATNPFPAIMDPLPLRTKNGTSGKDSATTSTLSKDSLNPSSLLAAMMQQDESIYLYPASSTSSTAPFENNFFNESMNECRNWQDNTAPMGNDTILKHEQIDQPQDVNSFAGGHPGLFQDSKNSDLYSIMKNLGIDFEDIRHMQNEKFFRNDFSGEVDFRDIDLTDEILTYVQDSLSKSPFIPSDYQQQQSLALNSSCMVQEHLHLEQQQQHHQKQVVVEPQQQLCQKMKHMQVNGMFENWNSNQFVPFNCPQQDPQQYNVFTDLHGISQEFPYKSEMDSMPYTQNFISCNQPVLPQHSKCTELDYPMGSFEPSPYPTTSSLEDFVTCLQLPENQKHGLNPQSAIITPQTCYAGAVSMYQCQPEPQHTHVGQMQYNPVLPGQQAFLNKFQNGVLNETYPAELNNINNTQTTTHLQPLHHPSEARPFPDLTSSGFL
Protocol: (f) AhR/XRE-dependent reporter gene activity results (EC50/μM).
Data are shown as mean ± SEM.
The human XRE -HepG2 reporter cell -line was a kind gift of K. Gradin and L. Poellinger (Karolinska Institute, Stockholm,
antibiotic/antimycotic solution, and 0.8 mg/ml G418. All cells were cultivated at 37 °C in a humidified atmosphere containing 5% CO 2.
AhR-dependent reporter gene activity was determined in human HepG2 cells stably transfected with an XRE -harboring luciferase plasmid (XRE-HepG2 cells). […] Luciferase activity was normalized to protein content.

AhR-GFP = biological target: T2, AhR-GFP (Homo sapiens, UniProt P35869); assay: MCF7 AhR-GFP.IRES.mCherry reporter, flow cytometry quantification of AhR protein levels; assay type: cell-based; settings: 5 μM, 5 h
T2 construct: host or cells: MCF7, lentiviral transduction
T2 sequence (P08238 whole entry partner, one chain of several): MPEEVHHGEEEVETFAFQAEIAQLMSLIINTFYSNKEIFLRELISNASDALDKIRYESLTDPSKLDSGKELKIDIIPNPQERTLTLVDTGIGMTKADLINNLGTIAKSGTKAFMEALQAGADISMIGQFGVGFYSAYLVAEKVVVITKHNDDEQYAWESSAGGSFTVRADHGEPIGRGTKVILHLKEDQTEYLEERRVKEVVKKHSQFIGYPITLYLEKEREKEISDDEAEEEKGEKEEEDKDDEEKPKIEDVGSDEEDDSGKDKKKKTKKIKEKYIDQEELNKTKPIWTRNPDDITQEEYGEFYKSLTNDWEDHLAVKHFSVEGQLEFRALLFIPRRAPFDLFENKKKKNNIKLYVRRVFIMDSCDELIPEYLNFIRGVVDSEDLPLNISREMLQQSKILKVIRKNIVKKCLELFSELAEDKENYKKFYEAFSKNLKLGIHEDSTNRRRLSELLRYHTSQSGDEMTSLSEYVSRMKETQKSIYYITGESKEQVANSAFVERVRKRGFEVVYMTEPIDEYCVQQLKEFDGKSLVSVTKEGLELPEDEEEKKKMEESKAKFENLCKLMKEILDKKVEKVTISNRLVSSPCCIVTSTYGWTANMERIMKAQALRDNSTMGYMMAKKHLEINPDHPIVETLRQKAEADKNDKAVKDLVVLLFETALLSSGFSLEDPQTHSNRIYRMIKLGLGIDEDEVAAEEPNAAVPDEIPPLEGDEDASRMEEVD
T2 sequence (O00170 whole entry partner, one chain of several): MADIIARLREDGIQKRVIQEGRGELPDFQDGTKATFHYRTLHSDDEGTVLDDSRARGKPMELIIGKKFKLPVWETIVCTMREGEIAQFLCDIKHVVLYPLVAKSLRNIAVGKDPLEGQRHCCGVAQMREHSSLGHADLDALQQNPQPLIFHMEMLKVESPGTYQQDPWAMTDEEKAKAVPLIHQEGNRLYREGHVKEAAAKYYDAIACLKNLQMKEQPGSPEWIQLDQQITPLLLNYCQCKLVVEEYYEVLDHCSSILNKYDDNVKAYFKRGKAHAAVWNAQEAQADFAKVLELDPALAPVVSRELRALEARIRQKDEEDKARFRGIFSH
Protocol: (§1) Figure 6 Bifunctional AhR probes and AhR reporter in MCF7 cells. (a) Synthetic access to the conjugatable AhR ligand 5m. (b) Structure, yield, and EC50 value of the model amide 12a and MD simulation of AhR with 12a (last snapshot). (c) PROTAC-like compound 12b and dual probes 12c–d. Reaction conditions: (a) 5m (1 equiv), amine (1 equiv), HATU, DIPEA, DMF, rt, 24 h, Ar atm; (b) 5m (2 equiv), diamine (1 equiv), HATU, DIPEA, DMF, rt, 24 h, Ar atm. (d) General setup of the reporter system for quantifying AhR protein levels. (e) The population of MCF7 reporter cells (MCF7 AhR-GFP.IRES.mCherry) gated by flow cytometry and used for quantification of AhR. […] Values represent the ratio of the geometric mean of GFP and mCherry values in the gated population. (g) Change in protein levels relative to vehicle treatment (DMSO) in MCF7 cells treated with 12b at 10 μM for 5 h quantified by TMT labeling and LC/MS analysis versus p-Value. TEXT PRINTED IN THE PICTURE: (b) 12a: EC50 = 0.40 μM […]
To test the effect of these compounds on AhR abundance, we established a cellular reporter in the breast cancer cell line MCF7. AhR in this case is fused to GFP bearing an independently translated mCherry on the same transcript to allow correction for general transcriptional interference of treatments (Figure 6d,e). […]

AhR = biological target: T3, AhR (Homo sapiens, UniProt P35869); assay: Global proteomics (TMT labeling, LC/MS) in MCF7 cells; assay type: cell-based; settings: 10 μM, 5 h
T3 construct: Degradation of endogenous AhR was further confirmed via Western blotting and global proteomics measurements in cells treated with 12b; host or cells: MCF7
T3 sequence (P35869 11-848): T1 sequence (P35869 11-848)
Protocol: as §1
Generation of reporter cell lines
The MCF7.AhR-GFP.IRES.mCherry and MCF7.AhRdPasB(d275-342)-GFP.IRES.mCherryreporter cell line was generated via lentivirus transduction. The coding sequence of the full length AhR (NM_001621.5), as well as the PasB deleted AhR (d275-342) were synthesized and cloned into a Lenti virus transfer plasmid (Artichoke, Addgene #73320), with hereby the resistance was swapped from puromycin to hygromycin. To produce the virus, 550k Lenti-X 293T cells (Takeda #632180) were seeded in a six-well plate with 3 mL of growth medium. The following day, a plasmid solution containing psPAX2 (500 ng), pVSV-G (5 ng), and AhR transfer plasmid (500 ng) was diluted in 21.5 μL of OPTIMEM, reaching a total volume of 32.5 μL. […]
For the flow cytometry experiments 150k cells were seeded in a 24 well-plate format in 0.5 mL growing medium and left to grow in the incubator for 16 h. […] They were subsequently measured on a BD LSR II and the data analyzed with FlowJo software (version 10.5.3, TreeStar). […]

EC50 [1] [nM]	AhR degradation in reporter system (AhR-GFP)	degradation of common CRBN-thalidomide off-target factors (zinc finger proteins, GSPT1) (AhR)	induced transcriptional activity (CYP1A1 and CYP1B1 protein levels) (AhR)	selectivity of protein degradation (AhR)	Molecule	UVA photosensitization (HaCaT cells)
–	–	–	–	–	6-formylindolo[3,2-b]carbazole [FICZ]	nanomolar sensitizer for UVA radiation
200	pronounced AhR degradation	absence of degradation	upregulation of CYP1A1 and CYP1B1	selectivity for AhR degradation	O=C1CCC(N2C(=O)c3cccc(OCCOCCOCCOCCNC(=O)c4ccc5c(-c6c7[nH]c8ccccc8c7cc7[nH]c8ccccc8c67)c[nH]c5c4)c3C2=O)C(=O)N1 (stereo not drawn) [12b]	–
